Consider six compounds from publication PMC9607427, “Novel 7-Chloro-(4-thioalkylquinoline) Derivatives: Synthesis and Antiproliferative Activity through Inducing Apoptosis and DNA/RNA Damage” (Pharmaceuticals, 2022).

Series [1] concerns K562-TAX (chronic myeloid leukemia paclitaxel-resistant subline). The series is described as follows: Cytotoxic MTS assay, K562-TAX. The series is classed as cell-based, human. On the procedure: (§1) In vitro cytotoxic activity of final compounds 5–82 was evaluated after 3 days of incubation against eight cell lines derived from human solid tumors including lung (A549 cells) and colon (HCT116 and HCT116p53−/−) carcinomas, as well as leukemia cell lines (CCRF-CEM, CEM-DNR, K562, and K562-TAX) and osteosarcoma (U2OS cells). For comparison, non-malignant BJ and MRC-5 fibroblasts, and BJLD and MCR-5LD fibroblasts doxorubicin-resistant cell lines were used. Concentrations inhibiting the cell growth by 50% (IC50) were determined using a quantitative metabolic staining with 3-(4,5-dimethylthiazol-2yl)-5-(3-carboxymethoxyphenyl)-2-(4-sulfophenyl)-2H-tetrazolium (MTS) and are summarized in (Table 3).
(§2) Cytotoxic activity was determined by MTS assay following 72 h of incubation. IC50 is the lowest concentration that kills 50% of cells. The standard deviation in cytotoxicity assays is typically up to 20% of the average value. […] The tested cell lines: A549 (lung adenocarcinoma), BJ (noncancerous human fibroblasts from foreskin), BJLD (human lung fibroblast doxorubicin-resistant), CCRF-CEM (childhood T cell acute lymphoblastic leukemia), a daunorubicin-resistant subline of CCRF-CEM cells (CEM-DNR bulk), HCT116 (colorectal carcinoma), HCT116p53−/− (HCT116 with deleted p53 gene), K562 (chronic myeloid leukemia), K562-TAX (chronic myeloid leukemia paclitaxel-resistant subline), MRC-5 (noncancerous human lung fibroblasts), MRC-5LD (noncancerous human lung fibroblasts doxorubicin-resistant), and U2OS (osteosarcoma).
(§3) All cell lines were purchased from the American Tissue Culture Collection (ATCC). The A549 cell line is lung adenocarcinoma. MRC-5 and BJ cell lines were used as a non-tumor control and represent human fibroblasts. (MRC-5 LD and BJLD) are doxorubicin-resistant human lung fibroblast cell lines. The CCRF-CEM line is derived from T lymphoblastic leukemia, evincing high chemosensitivity, whereas K562 represent cells from an […] patient sample with bcr-abl translocation. The daunorubicin-resistant subline of CCRF-CEM cells (CEM-DNR bulk) and paclitaxel-resistant subline K562-TAX were selected in our laboratory by the cultivation of maternal cell lines in increasing concentrations of daunorubicin or paclitaxel, respectively. The CEM-DNR bulk cells overexpress MRP-1 and P-glycoprotein protein, whereas K562-TAX cells overexpress P-glycoprotein only. Both proteins belong to the family of ABC transporters and are involved in the primary and/or acquired multidrug-resistance phenomenon. The U2OS cell line is derived from osteosarcoma, HCT116 is a colorectal tumor cell line and its p53 gene knock-down counterpart (HCT116p53−/−, Horizon Discovery Ltd., Cambridge, UK) is a model of human cancers with p53 mutation frequently associated with poor prognosis. The cells were maintained in nunc/corning 80 cm^2 plastic tissue culture flasks and cultured in a cell culture medium according to ATCC or Horizon recommendations (DMEM/RPMI 1640 with 5 g/L glucose, 2 mM glutamine, 100 U/mL penicillin, […], 10% fetal calf serum, and NaHCO3).
(§4) The activity of compounds was determined using a standard 3-(4,5-dimethylthiazol-2-yl)-5-(3-carboxymethoxyphenyl)-2-(4-sulfophenyl)-2H-tetrazolium (MTS) and it was performed at the Institute of Molecular and Translational Medicine by a robotic platform (High-ResBiosolutions). Cell suspensions were prepared and diluted according to the particular cell type and the expected target cell density (25,000–35,000 cells/mL based on cell growth characteristics). Cells were added by automatic pipettor (30 µL) into 384-well microtiter plates. All tested compounds were dissolved in 100% DMSO and four-fold dilutions of the intended test concentration were added in 0.15 µL aliquots at time zero to the microtiter plate wells by the echo acoustic non-contact liquid handler Echo550 (Labcyte). […]

A short description of series [2]: Cytotoxic MTS assay, MRC-5. The conditions noted are these: human, MRC-5 cells (noncancerous lung fibroblasts); MTS, 72 h of incubation. Format: cell-based, human. The method, then: as §1, §2, §3, §4
On the technique in general: Tetrazolium dyes change colour on reduction, which living cells bring about.

The nature of series [3]: Cytotoxic MTS assay, BJLD. The series is classed as cell-based, human. The conditions noted are these: human, BJLD cells (fibroblasts, doxorubicin-resistant); MTS, 72 h of incubation. The method, then:
as §1, §2, §3, §4

The test system of series [4] is CCRF-CEM (childhood T cell acute lymphoblastic leukemia). The series is described as follows: Cytotoxic MTS assay, CCRF-CEM. Format: cell-based, human. The method, then: as §1, §2, §3, §4
Series [5] relates to K562 (chronic myeloid leukemia). Kind of series: Cytotoxic MTS assay, K562. Format: cell-based, human. On the procedure:
as §1, §2, §3, §4

A short description of series [6]: Cytotoxic MTS assay, MRC-5LD. The conditions noted are these: human; MTS, 72 h of incubation; read-out: Cytotoxic activity IC50, MRC5-LD. The series is classed as cell-based, human. On the procedure: as §1, §2, §3, §4
Series [7] has as its system HCT116p53−/− (HCT116 with deleted p53 gene). The series is described as follows: Cytotoxic MTS assay, HCT116p53−/−. The series is classed as cell-based, human. On the procedure: as §1, §2, §3, §4
Series [8] concerns HCT116 (colorectal carcinoma). The series is described as follows: Cytotoxic MTS assay, HCT116. The series is classed as cell-based, human. On the procedure: as §1, §2, §3, §4
Series [9] can be described thus: Cytotoxic MTS assay, BJ. The series is classed as cell-based, human. Conditions: human, BJ cells (noncancerous foreskin fibroblasts); MTS, 72 h of incubation. On the procedure: as §1, §2, §3, §4
Series [10] relates to CEM-DNR bulk (daunorubicin-resistant subline of CCRF-CEM cells). The series is described as follows: Cytotoxic MTS assay, CEM-DNR. Format: cell-based, human. The method, then:
as §1, §2, §3, §4

Series [11] deals with A549 (lung adenocarcinoma). The series is described as follows: Cytotoxic MTS assay, A549. The series is classed as cell-based, human. On the procedure:
as §1, §2, §3, §4

In series [12] the test system is U2OS (osteosarcoma). Kind of series: Cytotoxic MTS assay, U2OS. The series is classed as cell-based, human. The method, then: as §1, §2, §3, §4
The test system of series [13] is MRC-5 (noncancerous human lung fibroblasts). Kind of series: Cytotoxic MTS assay, MRC-5. The series is classed as cell-based. The method, then:
as §1, §2, §3, §4

The subject of series [14] is BJLD (human lung fibroblast doxorubicin-resistant). Kind of series: Cytotoxic MTS assay, BJLD. The series is classed as cell-based. The method, then: as §1, §2, §3, §4
Series [15] concerns MRC-5LD (noncancerous human lung fibroblasts doxorubicin-resistant). The series is described as follows: Cytotoxic MTS assay, MRC-5LD. The series is classed as cell-based. The method, then:
as §1, §2, §3, §4

Series [16] has as its system BJ (noncancerous human fibroblasts from foreskin). Kind of series: Cytotoxic MTS assay, BJ. Format: cell-based. The method, then:
as §1, §2, §3, §4

Setting [17] is: Homo sapiens, K562-Tax, MTS, 72 h of incubation, read-out: Cytotoxic activity IC50, K562-TAX.
The mark [18] stands for this setting: Homo sapiens, CCRF-CEM, MTS, 72 h of incubation, read-out: Cytotoxic activity IC50, CCRF-CEM.
Where [19] appears, read: Homo sapiens, K562, MTS, 72 h of incubation, read-out: Cytotoxic activity IC50, K562.
Setting [20] is: Homo sapiens, HCT-116, MTS, 72 h of incubation, read-out: Cytotoxic activity IC50, HCT116-p53.
The mark [21] stands for this setting: Homo sapiens, HCT-116, MTS, 72 h of incubation, read-out: Cytotoxic activity IC50, HCT116.
Where [22] appears, read: Homo sapiens, CEM-DNR, MTS, 72 h of incubation, read-out: Cytotoxic activity IC50, CEM-DNR.
Where [23] appears, read: Homo sapiens, A549, MTS, 72 h of incubation, read-out: Cytotoxic activity IC50, A549.
The mark [24] stands for this setting: Homo sapiens, U2OS, MTS, 72 h of incubation, read-out: Cytotoxic activity IC50, U2OS.

SMILES strings stand for the structures. Where two headings read alike, the source gives them in different places. A value given as a limit tells only on which side of the number the result lay.

In the case of `COc1ccc(C(=O)OCCC[S+]([O-])c2ccnc3cc(Cl)ccc23)cc1` (stereo not drawn) [Compound 53, 3-[(7-Chloroquinolin-4-yl)sulfinyl]propyl-4-methoxybenzoate], the IC50 in [1] (setting [17]) turned out to be 6.98 µM; in series [4] (setting [18]) it was 1.31 µM; in series [5] (setting [19]), 13.9 µM; in series [7] (setting [20]) it was 8.51 µM; in series [8] (setting [21]), 12.5 µM; in series [10] (setting [22]), 8.71 µM. Besides, the IC50 in [11] (setting [23]) was 23.6 µM; in series [12] (setting [24]), 12.8 µM. For the same compound, the IC50 at 72 h in series [2] worked out at 27.9 µM; in series [3] it was 28.2 µM; in [6], 22.4 µM; in series [9], 30 µM.
Regarding `[O-][S+](CCO)c1ccnc2cc(Cl)ccc12` (stereo not drawn) [Compound 41, 2-[(7-Chloroquinolin-4-yl)sulfinyl]ethanol], the IC50 in series [1] (setting [17]) amounted to 21.4 µM; in series [4] (setting [18]) it was 4.52 µM; in [5] (setting [19]) it was 27.8 µM; in [7] (setting [20]), 22.5 µM; in [8] (setting [21]), 23.5 µM; in series [10] (setting [22]), 35.1 µM. Further, the 50% inhibitory concentration (IC50) in [11] (setting [23]) is 34.4 µM; in series [12] (setting [24]), 22.1 µM. The 50% inhibitory concentration (IC50) at 72 h came to 26.5 µM in series [2], 28.5 µM in [3], 24.5 µM in series [6] and 33.3 µM in series [9].
Turning to `Cc1ccc([N+](=O)[O-])c(C(=O)OCC[S+]([O-])c2ccnc3cc(Cl)ccc23)c1` (stereo not drawn) [Compound 49, 2-[(7-Chloroquinolin-4-yl)sulfinyl]ethyl-5-methyl-2-nitrobenzoate], the half-inhibitory concentration (IC50) in [1] (setting [17]) stood at 6.4 µM; in series [4] (setting [18]), 1.34 µM; in series [5] (setting [19]) it was 12.3 µM; in series [7] (setting [20]), 7.56 µM; in series [8] (setting [21]), 7 µM; in series [10] (setting [22]), 7.75 µM. The IC50 in series [11] (setting [23]) was determined as 15.7 µM; in [12] (setting [24]), 11.2 µM. Besides, the IC50 at 72 h in series [2] is over 50 µM; in series [3], 23.5 µM; in series [6], over 50 µM; in series [9], 30.7 µM.
On to `COc1ccc(C(=O)OCC[S+]([O-])c2ccnc3cc(Cl)ccc23)cc1[N+](=O)[O-]` (stereo not drawn) [Compound 48, 2-[(7-Chloroquinolin-4-yl)sulfinyl]ethyl-4-methoxy-3-nitrobenzoate], for which the IC50 in series [1] (setting [17]) was 9.03 µM; in series [4] (setting [18]), 1.42 µM; in series [5] (setting [19]), 16.9 µM; in [7] (setting [20]), 10 µM; in [8] (setting [21]) it was 17 µM; in [10] (setting [22]), 12.9 µM. The 50% inhibitory concentration (IC50) in series [11] (setting [23]) worked out at 25 µM; in [12] (setting [24]), 18.6 µM. Moreover, the IC50 at 72 h in series [2] was 27.8 µM; in series [3], 27.5 µM; in [6], 24 µM; in series [9] it was 29.2 µM.
In the case of `O=C(OCCC[S+]([O-])c1ccnc2cc(Cl)ccc12)c1ccc(C(F)(F)F)cc1` (stereo not drawn) [Compound 62, 3-[(7-Chloroquinolin-4-yl)sulfinyl]propyl-4-(trifluoromethyl)benzoate], the concentration for half-maximal inhibition (IC50) was found to be 9.15 µM in [1] (setting [17]); 1.17 µM in series [4] (setting [18]); 17.6 µM in series [5] (setting [19]); 9.61 µM in series [7] (setting [20]); 15.7 µM in series [8] (setting [21]); 10.5 µM in series [10] (setting [22]). The 50% inhibitory concentration (IC50) worked out at 26.1 µM in [11] (setting [23]) and 14.3 µM in series [12] (setting [24]). In addition, the concentration for half-maximal inhibition (IC50) at 72 h in series [2] turned out to be 29.4 µM; in series [3], 30.1 µM; in series [6] it was 25.9 µM; in series [9], 29.9 µM.
`COc1ccc(OC)c(C(=O)OCCCS(=O)(=O)c2cc[n+]([O-])c3cc(Cl)ccc23)c1` [Compound 75, 3-[(N-Oxide 7-chloroquinolin-4-yl)sulfonyl]propyl-2,5-dimethoxybenzoate]: the IC50 in [1] amounted to 9.56 µM; in series [13] it was 21.5 µM; in series [14], 17.8 µM; in [4], 1.45 µM; in series [5], 7.14 µM; in [15], 18.9 µM. Further, the IC50 came out at 6.86 µM in [7]; 5.37 µM in series [8]; 26.6 µM in series [16]; 7.22 µM in series [10]; 7.28 µM in [11]; 6.4 µM in [12].

Usually IC50 stands for the concentration that inhibits the measured activity by half.
